Data on 2 molecules can be found in US20160257986A1, “Bacterial Diagnosis” (SRI INTERNATIONAL, priority 2013, published 2016).

Format in all cases: cell-based
The test system of experiment [1] is P. aeruginosa (ATCC 27853). The experiment in a line: MIC of ciprofloxacin against P. aeruginosa. To be noted: Pseudomonas aeruginosa, ATCC27853.
Experiment [2] relates to P. aeruginosa (ATCC 27853). The experiment is described as follows: Simultaneous antibiotic susceptibility (DHR 123) and species identification (anti-P. aeruginosa antibody) by flow cytometry. The following applies: dihydrorhodamine 123 5 μM; 3 hour and 4 hour timepoints. As to the method: Cultures of P. aeruginosa (ATCC 27853) were inoculated in 3 ml Mueller-Hinton broth (MHB) with an OD600 of 0.06. After 2 hours at 37 C, the cultures were at OD600 of 0.150. At time =0 hours, a test antibiotic (ciprofloxacin) or vehicle (DMSO) was added to each culture along with dihydrorhodamine 123 at 5 μM final concentration. At 3 hour and 4 hour timepoints,1 mL of the P. aeruginosa cells were centrifuged and resuspended in FACS buffer with a primary anti-Pseudomonas antibody (rabbit polyclonal Anti-Pseudomonas antibody (ab68538, abcam, Cambridge, Mass.)), and incubated for 15 minutes. The tubes were then centrifuged and resuspended in FACS buffer with a secondary antibody (goat anti-rabbit labeled with Cy7 dye) for another 15 minutes. The samples were then run directly on a FACScaliber flow cytometer for analysis.
In general terms: In flow cytometry, cells or beads pass a laser one at a time.

Experiment [3] relates to E. coli (ATCC 25922). The experiment in a line: MIC of norfloxacin against E. coli. To be noted: Escherichia coli, ATCC25922.

The MIC is the lowest concentration that inhibits growth of the organism.

Structures are written as SMILES.

For `O=C(O)c1cn(C2CC2)c2cc(N3CCNCC3)c(F)cc2c1=O` [ciprofloxacin], in experiment [1], the MIC was found to be 0.25 µg/mL. Moreover, in experiment [2], the “response of DHR 123 labeling to antibiotic” value was “dose-dependent response”. As to `CCn1cc(C(=O)O)c(=O)c2cc(F)c(N3CCNCC3)cc21` [norfloxacin], the MIC in experiment [3] stood at 0.064 µg/mL.
